In ChEMBL document CHEMBL4507276 (2021):

Columns and labels:
[1] = target: 5-hydroxytryptamine receptor 1E (Homo sapiens) (UniProt P28566); conditions: Compound concentration 10.0 uM
[2] = target: Ribosomal protein S6 kinase alpha-5 (Homo sapiens) (UniProt O75582); conditions: Compound concentration 1000.0 nM
[3] = target: RAC-gamma serine/threonine-protein kinase (Homo sapiens) (UniProt Q9Y243); test: AKT3 Invitrogen selectivity data (BI); conditions: Compound concentration 3.0 uM
[4] = target: Glutamate receptor ionotropic, NMDA 1 (Rattus norvegicus) (UniProt P35439); test: NMDAGLSI/RA Eurofins-Panlabs selectivity data (BI); conditions: Compound concentration 10.0 uM
[5] = target: Leucine-rich repeat serine/threonine-protein kinase 2 (Homo sapiens) (UniProt Q5S007); test: LRRK2 Invitrogen selectivity data (BI); conditions: Compound concentration 3.0 uM
[6] = target: Serine/threonine-protein kinase MRCK beta (Homo sapiens) (UniProt Q9Y5S2); test: CDC42 BPB Invitrogen selectivity data (BI); conditions: Compound concentration 3.0 uM
[7] = target: T1, Glutamate NMDA receptor (Rattus norvegicus) (UniProt P35439+Q00959+Q00960+Q00961+Q62645+Q8VHN2+Q9R1M7); test: PCP/R Cerep selectivity data (BI); assay type: protein-complex assay; conditions: Compound concentration 20.0 uM
[8] = target: Mitogen-activated protein kinase kinase kinase 20 (Homo sapiens) (UniProt Q9NYL2); test: ZAK Invitrogen selectivity data (BI); conditions: Compound concentration 3.0 uM
[9] = target: T2, Megakaryocyte-associated tyrosine-protein kinase (Homo sapiens) (UniProt P42679); test: MATK Invitrogen selectivity data (BI); conditions: Compound concentration 3.0 uM
T2 sequence (whole entry): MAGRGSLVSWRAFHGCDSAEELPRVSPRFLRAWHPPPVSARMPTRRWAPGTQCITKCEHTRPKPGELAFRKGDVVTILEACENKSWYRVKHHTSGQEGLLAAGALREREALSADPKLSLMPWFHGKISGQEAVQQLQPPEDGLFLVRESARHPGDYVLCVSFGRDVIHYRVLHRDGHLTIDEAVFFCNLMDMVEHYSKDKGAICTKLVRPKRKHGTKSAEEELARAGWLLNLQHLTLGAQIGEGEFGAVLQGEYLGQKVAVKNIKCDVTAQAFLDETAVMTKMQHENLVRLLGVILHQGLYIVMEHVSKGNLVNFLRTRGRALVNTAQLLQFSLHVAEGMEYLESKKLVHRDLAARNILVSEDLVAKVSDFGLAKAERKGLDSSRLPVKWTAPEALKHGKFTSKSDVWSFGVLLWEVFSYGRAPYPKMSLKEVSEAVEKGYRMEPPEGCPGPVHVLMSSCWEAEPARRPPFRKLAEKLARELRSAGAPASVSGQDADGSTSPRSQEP

[10] = target: T3, 5-hydroxytryptamine receptor 3A (Homo sapiens) (UniProt P46098); test: 5HT3/HU Eurofins-Panlabs selectivity data (BI); conditions: Compound concentration 10.0 uM
T3 sequence (whole entry): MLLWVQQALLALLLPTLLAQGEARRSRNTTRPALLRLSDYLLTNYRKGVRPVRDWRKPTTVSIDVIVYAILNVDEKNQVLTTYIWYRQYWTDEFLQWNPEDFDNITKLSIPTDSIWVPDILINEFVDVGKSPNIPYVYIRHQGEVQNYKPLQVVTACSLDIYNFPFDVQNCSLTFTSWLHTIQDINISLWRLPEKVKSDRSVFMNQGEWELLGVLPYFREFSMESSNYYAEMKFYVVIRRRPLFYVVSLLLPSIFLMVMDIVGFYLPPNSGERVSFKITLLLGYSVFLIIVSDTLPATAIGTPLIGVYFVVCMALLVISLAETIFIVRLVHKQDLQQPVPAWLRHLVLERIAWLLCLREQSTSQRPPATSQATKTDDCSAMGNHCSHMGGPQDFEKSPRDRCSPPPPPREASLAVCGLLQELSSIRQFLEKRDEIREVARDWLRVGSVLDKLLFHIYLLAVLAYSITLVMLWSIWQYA

[11] = target: Motilin receptor (Homo sapiens) (UniProt O43193); test: MOTILINH_AGON Cerep selectivity data (BI); conditions: filed as agonist, Compound concentration 20.0 uM
[12] = target: T1, Glutamate NMDA receptor (Rattus norvegicus); test: NMDAAGSI/RA Eurofins-Panlabs selectivity data (BI); assay type: protein-complex assay; conditions: filed as agonist, Compound concentration 10.0 uM
[13] = target: Somatostatin receptor type 1 (Homo sapiens) (UniProt P30872); test: SST1H_AGON Cerep selectivity data (BI); conditions: filed as agonist, Compound concentration 20.0 uM
[14] = target: Melanocortin receptor 3 (Homo sapiens) (UniProt P41968); test: MC3H_AGON Cerep selectivity data (BI); conditions: filed as agonist, Compound concentration 20.0 uM
[15] = target: Kappa-type opioid receptor (Homo sapiens) (UniProt P41145); test: KAPPA/HU Eurofins-Panlabs selectivity data (BI); conditions: Compound concentration 10.0 uM
[16] = target: Tyrosine-protein kinase ABL2 (Homo sapiens) (UniProt P42684); test: ABL2 Invitrogen selectivity data (BI); conditions: Compound concentration 3.0 uM
[17] = target: Beta-3 adrenergic receptor (Homo sapiens) (UniProt P13945); test: BETA3/HU Cerep selectivity data (BI); conditions: filed as antagonist, Compound concentration 20.0 uM
[18] = target: P2X purinoceptor (Oryctolagus cuniculus) (UniProt G1U3D6); test: P2X/RB Eurofins-Panlabs selectivity data (BI); conditions: Compound concentration 10.0 uM
[19] = test system: Proto-oncogene tyrosine-protein kinase receptor Ret (Homo sapiens), P07949 [Y791F]; test: RET Y791F Invitrogen selectivity data (BI); conditions: Compound concentration 3.0 uM
[20] = target: NT-3 growth factor receptor (Homo sapiens) (UniProt Q16288); test: NTRK3 Invitrogen selectivity data (BI); conditions: Compound concentration 3.0 uM
[21] = target: Prostaglandin E2 receptor EP2 subtype (Homo sapiens) (UniProt P43116); test: EP2(H) Cerep selectivity data (BI); conditions: filed as agonist, Compound concentration 20.0 uM
[22] = target: Leukocyte tyrosine kinase receptor (Homo sapiens) (UniProt P29376); test: LTK Invitrogen selectivity data (BI); conditions: Compound concentration 3.0 uM
[23] = target: CDK9/Cyclin K (Homo sapiens) (UniProt P50750+O75909); test: CDK9_CYCLINK Invitrogen selectivity data (BI); assay type: protein-complex assay; conditions: Compound concentration 3.0 uM

NT-3 growth factor receptor (Homo sapiens), sequence (Q16288 32-839 limits assumed): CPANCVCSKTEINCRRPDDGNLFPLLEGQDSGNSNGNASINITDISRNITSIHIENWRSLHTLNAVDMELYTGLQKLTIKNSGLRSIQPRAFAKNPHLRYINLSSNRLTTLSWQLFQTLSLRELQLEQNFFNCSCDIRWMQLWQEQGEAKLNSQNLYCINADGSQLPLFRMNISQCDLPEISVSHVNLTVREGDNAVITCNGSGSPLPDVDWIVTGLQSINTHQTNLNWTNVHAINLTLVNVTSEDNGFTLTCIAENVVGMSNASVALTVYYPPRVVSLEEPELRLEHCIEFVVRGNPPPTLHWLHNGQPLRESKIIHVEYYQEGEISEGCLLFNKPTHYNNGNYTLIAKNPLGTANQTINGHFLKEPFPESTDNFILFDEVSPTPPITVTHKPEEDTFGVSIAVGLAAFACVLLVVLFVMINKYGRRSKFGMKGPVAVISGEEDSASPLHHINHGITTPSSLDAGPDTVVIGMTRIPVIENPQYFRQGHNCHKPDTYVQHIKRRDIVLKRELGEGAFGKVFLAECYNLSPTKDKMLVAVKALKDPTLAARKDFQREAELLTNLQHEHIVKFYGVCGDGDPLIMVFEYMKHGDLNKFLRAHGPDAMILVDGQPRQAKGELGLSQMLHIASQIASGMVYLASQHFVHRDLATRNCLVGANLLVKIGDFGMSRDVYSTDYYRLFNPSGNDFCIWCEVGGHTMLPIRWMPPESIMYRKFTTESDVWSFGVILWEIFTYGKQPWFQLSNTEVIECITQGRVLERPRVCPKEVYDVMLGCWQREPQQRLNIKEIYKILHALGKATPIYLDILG
RAC-gamma serine/threonine-protein kinase (Homo sapiens), sequence (Q9Y243 whole entry): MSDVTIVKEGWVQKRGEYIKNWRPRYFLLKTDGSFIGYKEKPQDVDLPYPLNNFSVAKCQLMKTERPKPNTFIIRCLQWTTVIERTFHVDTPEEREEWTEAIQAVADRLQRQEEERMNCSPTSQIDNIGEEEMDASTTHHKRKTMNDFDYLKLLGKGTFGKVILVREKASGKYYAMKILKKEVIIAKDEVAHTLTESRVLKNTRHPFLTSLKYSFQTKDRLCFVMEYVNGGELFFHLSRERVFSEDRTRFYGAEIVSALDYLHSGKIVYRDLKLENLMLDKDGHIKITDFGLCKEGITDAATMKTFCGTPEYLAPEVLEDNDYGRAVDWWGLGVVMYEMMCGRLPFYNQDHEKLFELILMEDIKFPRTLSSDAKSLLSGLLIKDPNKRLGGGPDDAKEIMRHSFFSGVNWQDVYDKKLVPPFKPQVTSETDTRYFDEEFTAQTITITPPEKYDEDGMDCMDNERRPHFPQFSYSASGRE
Beta-3 adrenergic receptor (Homo sapiens), sequence (P13945 whole entry, looked up): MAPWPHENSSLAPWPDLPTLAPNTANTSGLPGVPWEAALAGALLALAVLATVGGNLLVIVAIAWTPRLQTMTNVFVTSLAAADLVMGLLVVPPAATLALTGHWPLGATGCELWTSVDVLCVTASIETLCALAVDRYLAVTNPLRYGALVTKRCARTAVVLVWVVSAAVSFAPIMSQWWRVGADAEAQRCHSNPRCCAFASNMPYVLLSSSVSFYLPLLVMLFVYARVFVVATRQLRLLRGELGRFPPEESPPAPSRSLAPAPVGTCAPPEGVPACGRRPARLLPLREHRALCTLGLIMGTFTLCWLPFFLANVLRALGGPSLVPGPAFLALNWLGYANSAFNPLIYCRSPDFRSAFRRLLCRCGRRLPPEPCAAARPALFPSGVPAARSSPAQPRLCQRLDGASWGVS
Prostaglandin E2 receptor EP2 subtype (Homo sapiens), sequence (P43116 whole entry): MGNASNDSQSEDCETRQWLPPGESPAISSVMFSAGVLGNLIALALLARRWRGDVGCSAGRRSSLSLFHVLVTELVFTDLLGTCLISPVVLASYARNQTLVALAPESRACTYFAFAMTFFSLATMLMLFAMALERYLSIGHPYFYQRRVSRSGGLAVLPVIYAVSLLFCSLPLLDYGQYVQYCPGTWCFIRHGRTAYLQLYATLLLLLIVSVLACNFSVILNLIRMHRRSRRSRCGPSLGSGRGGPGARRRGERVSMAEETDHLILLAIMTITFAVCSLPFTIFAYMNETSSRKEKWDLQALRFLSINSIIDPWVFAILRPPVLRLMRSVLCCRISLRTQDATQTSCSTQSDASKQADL
Ribosomal protein S6 kinase alpha-5 (Homo sapiens), sequence (O75582 whole entry, looked up): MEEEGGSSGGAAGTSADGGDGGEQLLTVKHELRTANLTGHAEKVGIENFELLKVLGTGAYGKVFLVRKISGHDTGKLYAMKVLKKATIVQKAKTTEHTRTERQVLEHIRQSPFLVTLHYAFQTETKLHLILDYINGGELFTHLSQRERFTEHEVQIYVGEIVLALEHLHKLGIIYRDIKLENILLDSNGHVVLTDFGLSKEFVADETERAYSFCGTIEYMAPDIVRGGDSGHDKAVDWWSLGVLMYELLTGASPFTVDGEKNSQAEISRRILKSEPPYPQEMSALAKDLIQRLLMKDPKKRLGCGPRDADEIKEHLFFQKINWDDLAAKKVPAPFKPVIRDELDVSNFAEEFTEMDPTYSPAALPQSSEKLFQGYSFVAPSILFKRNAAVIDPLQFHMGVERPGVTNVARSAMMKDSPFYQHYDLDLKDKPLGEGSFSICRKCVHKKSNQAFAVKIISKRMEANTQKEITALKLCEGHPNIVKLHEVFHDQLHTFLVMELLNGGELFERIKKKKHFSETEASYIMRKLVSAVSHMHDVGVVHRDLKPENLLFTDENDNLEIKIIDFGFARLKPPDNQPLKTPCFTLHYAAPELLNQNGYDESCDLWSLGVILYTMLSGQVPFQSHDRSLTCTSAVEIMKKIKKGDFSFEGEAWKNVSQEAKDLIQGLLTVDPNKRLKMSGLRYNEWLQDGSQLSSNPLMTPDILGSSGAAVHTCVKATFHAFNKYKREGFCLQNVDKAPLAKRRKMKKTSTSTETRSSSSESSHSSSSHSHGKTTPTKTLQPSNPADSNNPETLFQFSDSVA
Melanocortin receptor 3 (Homo sapiens), sequence (P41968 whole entry): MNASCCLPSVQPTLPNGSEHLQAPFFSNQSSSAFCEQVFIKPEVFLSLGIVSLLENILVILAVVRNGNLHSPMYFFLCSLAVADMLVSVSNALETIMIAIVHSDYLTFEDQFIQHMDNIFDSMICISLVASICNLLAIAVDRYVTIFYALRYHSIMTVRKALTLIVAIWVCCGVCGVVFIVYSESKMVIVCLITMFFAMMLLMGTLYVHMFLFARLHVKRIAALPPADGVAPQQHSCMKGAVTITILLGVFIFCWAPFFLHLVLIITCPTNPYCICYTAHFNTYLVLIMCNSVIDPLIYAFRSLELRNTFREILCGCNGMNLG
Kappa-type opioid receptor (Homo sapiens), sequence (P41145 whole entry): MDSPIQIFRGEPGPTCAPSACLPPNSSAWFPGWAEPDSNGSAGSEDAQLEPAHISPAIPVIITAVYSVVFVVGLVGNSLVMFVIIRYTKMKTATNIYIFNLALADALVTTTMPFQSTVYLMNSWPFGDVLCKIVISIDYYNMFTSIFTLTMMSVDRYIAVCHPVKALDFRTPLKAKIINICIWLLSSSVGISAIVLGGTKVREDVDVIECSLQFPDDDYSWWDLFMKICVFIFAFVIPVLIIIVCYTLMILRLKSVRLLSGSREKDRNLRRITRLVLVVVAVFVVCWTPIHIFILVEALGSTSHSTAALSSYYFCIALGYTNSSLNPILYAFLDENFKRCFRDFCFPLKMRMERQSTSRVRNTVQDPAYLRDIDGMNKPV
P2X purinoceptor (Oryctolagus cuniculus), sequence (G1U3D6 as listed by the source): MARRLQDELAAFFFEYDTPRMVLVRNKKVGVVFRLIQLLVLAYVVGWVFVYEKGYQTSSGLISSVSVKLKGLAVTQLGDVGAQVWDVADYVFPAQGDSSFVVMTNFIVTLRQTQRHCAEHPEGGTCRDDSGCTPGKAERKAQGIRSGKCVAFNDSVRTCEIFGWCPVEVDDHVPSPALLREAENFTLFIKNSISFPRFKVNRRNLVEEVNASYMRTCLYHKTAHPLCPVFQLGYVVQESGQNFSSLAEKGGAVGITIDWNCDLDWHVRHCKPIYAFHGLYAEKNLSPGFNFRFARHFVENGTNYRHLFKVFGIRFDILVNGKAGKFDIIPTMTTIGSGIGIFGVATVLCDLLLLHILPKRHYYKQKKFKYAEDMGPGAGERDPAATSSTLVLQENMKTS
Somatostatin receptor type 1 (Homo sapiens), sequence (P30872 whole entry): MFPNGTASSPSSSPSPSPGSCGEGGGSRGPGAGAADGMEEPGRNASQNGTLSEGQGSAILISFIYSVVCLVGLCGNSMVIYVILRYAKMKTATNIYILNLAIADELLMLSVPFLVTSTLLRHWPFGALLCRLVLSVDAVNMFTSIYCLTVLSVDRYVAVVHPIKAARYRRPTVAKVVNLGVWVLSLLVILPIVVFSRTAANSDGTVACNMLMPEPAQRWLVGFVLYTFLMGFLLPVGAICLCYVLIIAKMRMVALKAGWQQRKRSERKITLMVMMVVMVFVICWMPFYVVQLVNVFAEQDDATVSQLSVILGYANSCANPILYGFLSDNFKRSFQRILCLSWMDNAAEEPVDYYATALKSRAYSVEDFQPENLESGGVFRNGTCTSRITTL
Motilin receptor (Homo sapiens), sequence (O43193 whole entry): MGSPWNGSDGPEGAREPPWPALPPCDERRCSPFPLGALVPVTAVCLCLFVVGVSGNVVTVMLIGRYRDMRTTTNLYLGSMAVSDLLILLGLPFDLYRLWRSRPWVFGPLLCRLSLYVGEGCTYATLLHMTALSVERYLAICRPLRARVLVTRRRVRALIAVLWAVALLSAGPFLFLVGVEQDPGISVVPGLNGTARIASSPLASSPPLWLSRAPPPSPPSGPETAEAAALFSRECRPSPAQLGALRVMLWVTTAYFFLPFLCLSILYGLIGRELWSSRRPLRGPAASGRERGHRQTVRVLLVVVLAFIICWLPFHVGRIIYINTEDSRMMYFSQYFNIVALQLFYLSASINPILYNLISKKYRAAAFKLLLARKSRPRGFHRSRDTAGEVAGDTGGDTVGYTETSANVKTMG

CN(C)C(=O)Cn1cc(-c2nc(C3(c4ccc(-c5cnc(N)nc5)cc4)CC3)no2)cn1 [BI 0153]
inactive: inhibition [1] -7.33% | residual activity [2] 67%

CN(C)C(=O)Cn1cc(-c2nc([C@@](C)(c3ccc(-c4cnc(N)nc4)cc3)C3CC3)no2)cn1 [BI 665915]
inactive: residual activity [3] 102% | residual activity [4] 90% | residual activity [5] 96% | residual activity [6] 94% | residual activity [7] 100% | residual activity [8] 97% | residual activity [9] 97.5% | residual activity [10] 102% | residual activity [11] 109% | residual activity [12] 102% | residual activity [13] 96% | residual activity [14] 94% | residual activity [15] 102% | residual activity [16] 79.5% | residual activity [17] 86% | residual activity [18] 111% | residual activity [19] 60% | residual activity [20] 93% | residual activity [21] 97% | residual activity [22] 96.5% | residual activity [23] 96%
